Read-outs that look alike come from different tables or passages of the source.
Assays:
[1] = tested on: DNA damage machinery in A549 cells; test: DNA damage assay (anti-pH2AX / anti-pATM, flow cytometry); format: cell-based, human; details: A549, IC50, 24 h, vs untreated cells
Description: (§1) We used flow cytometry to analyze several cellular mechanistic pathways in A549 cells after incubation with the triterpenes. In general, the cells were seeded in a 6-well plate at a density of 1 × 10^6 cells/mL and incubated for 24 h in supplemented DMEM. After 24 h, the A549 cells were treated with the triterpenes, following each manufacturer’s protocol. All of the following experiments were performed in a Muse® Cell Analyzer (EMD Millipore Corporation, Temecula, CA). The instrument was calibrated before each assay using the Muse® System Check Kit (Luminex MCH100101, Luminex Corporation). Each assay was run at least in two independent experiments. For each experiment, all samples were analyzed in triplicate in the instrument and the capillary line was washed after each sample run to avoid artifacts. In addition, to address the issue of cell doublets, we used the Muse® Cell Dispersal Reagent (Luminex Corporation) in all experiments. The concentration of the triterpenes in each assay was selected depending on the cellular concentration necessary to generate the gain signal in the instrument. This means that we attempted to select concentrations avoiding excessive cytotoxicity to accurately determine the respective signal from each assay.
Then, the A549 cells were scraped and centrifuged. The pellet was suspended in the assay buffer from the Luminex MCH200107 kit (Luminex Corporation). […]

MAPK/PI3K = MAPK/PI3K protein expression (dual pathway activation kit, flow cytometry); format: cell-based, human; details: for MAPK/PI3K expression (in words): A549, IC25, 24 h, vs untreated cells; for MAPK/PI3K inhibition: summary, NSCLC A549 cells; for MAPK/PI3K inhibition: key: '✔' means induction; '-' means non-induction of any of the tested processes
Description: as §1
The Muse® P13K/MAPK Dual Pathway Activation Kit (Luminex MCH200108, Luminex Corporation) was used to determine MAPK/PI3K expression. After the incubation treatment with the triterpenes (IC25) for 24 h, the A549 cells were scraped, centrifuged, and washed once with 1× PBS. Next, the fixation buffer was incubated for 10 min and then the permeabilization buffer for another 10 min. Both incubations were performed on ice. Later, the antibody cocktail containing anti-phospho-Akt and anti-phospho-ERK1/2 was incubated for 30 min. Afterward, the cell pellet was washed and suspended in fresh assay buffer for measurement.

NSCLC A549 cells [2] = test: MTS/PMS cell viability, A549; format: cell-based, human; for TI > 1: key: '✔' means induction; '-' means non-induction of any of the tested processes
Description: A similar procedure was performed to determine the IC50 of the triterpenes in a normal lung fibroblast cell line (MRC5). In brief, the A549 and MRC5 cells were seeded into 96-well plates at a density of 1 × 10^5 cells/mL in supplemented DMEM medium. […] Then, 10 uL of the MTS reagent from the CellTiter 96® Aqueous Non-Radioactive Cell Proliferation Assay (Promega G5421) was added to each well. Then, we incubated the plates at 37 °C and in a 5% CO2 atmosphere for 1 h. After incubation, the absorbance was measured at 492 nm (n = 8) in a microplate reader spectrophotometer (Thermoscientific Multiskan FC). The cell viability was calculated as follows:% Viability = (sample absorbance − sample media absorbance)/(untreated cells’ absorbance − untreated cells’ media absorbance) × 100
The cell viability data were presented by plotting the values with an average of eight measurements for each treatment (mean ± SD) in at least three independent experiments. The IC50 values were calculated with the GraphPad Prism 9 software (Prism 9; GraphPad by Dotmatics, San Diego, CA, USA) using the dose–response curve.

LC3-II = test: Autophagy induction assay (LC3 antibody, flow cytometry); format: cell-based, human; details: for Autophagic response (in words): A549, IC25, 24 h, vs controls (untreated ratio 0.8, starving ratio 1)
Description: as §1
The Muse® Autophagy LC3 Antibody-Based Kit (Luminex MCH200109, Luminex Corporation) was used to determine autophagy activation by monitoring lipidated LC3-II. After the A549 cells were treated with the triterpenes (IC25) for 24 h, autophagy reagent A was added for 4 h to prevent the lysosomal degradation of LC3-II. Then, the cells were detached and centrifuged. The pellet was suspended and incubated for 30 min in the autophagy reagent B containing anti-LC3-II mouse monoclonal antibody. Finally, the cell pellet was washed and suspended in fresh assay buffer for measurement. The autophagy response was calculated using the following formula:
Autophagy ratio = mean autophagy value of treated or untreated cells/mean autophagy value of starving cells.
The starving cells were labeled ‘No supp’ as non-supplemented cells. These served as the positive signal for autophagy and were designated a ratio of 1 since they were compared to themselves. A ratio ≥1 indicates the activation of the autophagic response.

NSCLC A549 cells [3] = tested on: NSCLC A549 cells; set-up: method as in PMID 31338398; details: cited from earlier work; for IC50: 24 h, MTS/PMS, already obtained by the authors; for Cytotoxicity in A549 cells at the highest concentration: 100 μM
[4] = MTS/PMS cell viability, MRC5; format: cell-based; details: human, MRC5 normal lung fibroblast cells
Description: The 50% inhibitory concentration (IC50) of some of these triterpenes in A549 NSCLC cells were previously determined by us. A similar procedure was performed to determine the IC50 of the triterpenes in a normal lung fibroblast cell line (MRC5). In brief, the A549 and MRC5 cells were seeded into 96-well plates at a density of 1 × 10^5 cells/mL in supplemented DMEM medium. The cells were treated with specific concentrations (A549: 5, 10, 25, 50, 75, 100, 125,150, 175, 200 μM; MRC5: 5, 10, 25, 50, 75, 100 μM) of the triterpenes and incubated for 24 h. Then, 10 uL of the MTS reagent from the CellTiter 96® Aqueous Non-Radioactive Cell Proliferation Assay (Promega G5421) was added to each well. Then, we incubated the plates at 37 °C and in a 5% CO2 atmosphere for 1 h. After incubation, the absorbance was measured at 492 nm (n = 8) in a microplate reader spectrophotometer (Thermoscientific Multiskan FC). The cell viability was calculated as follows:% Viability = (sample absorbance − sample media absorbance)/(untreated cells’ absorbance − untreated cells’ media absorbance) × 100
The cell viability data were presented by plotting the values with an average of eight measurements for each treatment (mean ± SD) in at least three independent experiments. The IC50 values were calculated with the GraphPad Prism 9 software (Prism 9; GraphPad by Dotmatics, San Diego, CA, USA) using the dose–response curve. The data were normalized by the non-linear fit of the log (drug inhibition) vs. normalized response variable slope to obtain the best fit IC50 and R-squared values.

A549 cells [5] = test: Total ROS production assay (DCF); format: cell-based, human; details: A549, IC25 (CisPt 25 μM), 24 h
Description: The production of total ROS was determined using the 2′,7′-dichlorodihydrofluorescein diacetate (DCF) fluorescent dye. A549 cells were seeded in a concentration of 1 × 10^5 cells/mL into black 96-well plates with a clear bottom. After 24 h, the cells were incubated with the triterpenes (IC25) and controls for 24 h. Then, 50 μL of DCF (10 μM) was added to each well and they were incubated for 1 h at room temperature. Then, the fluorescence of each well was measured (Ex/Em = 485/530 nm) in the Tecan® M200 plate reader.
This experiment was performed in triplicate. All data were expressed by plotting the values as an average of three measurements for each treatment condition as the mean ± SD and analyzed with the software GraphPad Prism 9. Statistical analysis was performed using one-way analysis of variance (ANOVA) to compare the mean value of each treated type of cells versus the control (untreated cells). The statistical significance defined by the software for p values was **** < 0.0001, *** from 0.001 to 0.0001, ** from 0.001 to 0.01, * from 0.01 to 0.05, and non-significant (ns) ≥ 0.05.

PDL1 gene = test: RT-qPCR gene expression of PDL1; format: cell-based, human; details: A549, IC25 (CisPt 25 μM), 24 h
Description: (§2) A549 cells were seeded into 6-well plates at a density of 1 × 10^6 cells/mL in supplemented DMEM. The cells were incubated with the triterpenes (IC25) for 24 h. Total RNA was extracted from the cells using the TRIzol reagent (Invitrogen Corporation, Carlsbad, CA, USA) according to the manufacturer’s instructions. The purity and concentration of RNA were assessed using a NanoDrop spectrophotometer (Thermo Fisher Scientific). cDNA was synthesized using the High-Capacity cDNA Reverse Transcription Kit (Applied Biosystems) according to the manufacturer’s instructions.
(§3) RT-qPCR was performed on a StepOnePlus® Real-Time PCR System (Thermo Fisher Scientific) using TaqMan Gene Expression Assays (Applied Biosystems) for PDL1 (CD274; Assay ID: Hs01125297_m1), ribonucleotide reductase (RR) M1 (Assay ID: Hs01040697_m1), and STAT3 (Assay ID: Hs01047586_g1). Each reaction consisted of 10 ng of cDNA, TaqMan Gene Expression Master Mix (Applied Biosystems), and TaqMan probes. The PCR cycling conditions were as follows: 95 °C for 10 min, followed by 40 cycles of 95 °C for 15 s and 60 °C for 60 s. The relative gene expression levels were calculated using the ΔΔCt method. GAPDH (Assay ID: Hs02758991_g1) was used as the endogenous control for normalization.
(§4) All RT-qPCR experiments were performed at least in triplicate. All data were expressed by plotting values with an average of four measurements for each treatment condition as the mean ± SD and analyzed with the software GraphPad Prism 9. Statistical analysis was performed using one-way analysis of variance (ANOVA) to compare the mean value of each treated type of cells versus the control (untreated cells). The statistical significance defined by the software for p values was **** < 0.0001, *** from 0.001 to 0.0001, ** from 0.001 to 0.01, * from 0.01 to 0.05, and non-significant (ns) ≥ 0.05.

RRM1 gene = test: RT-qPCR gene expression of ribonucleotide reductase M1; format: cell-based, human
Description: as §2
as §3, with “GAPDH (Assay ID: Hs02758991_g1) was used as the endogenous control for normalization.” left out
All RT-qPCR experiments were performed at least in triplicate. All data were expressed by plotting values with an average of four measurements for each treatment condition as the mean ± SD and analyzed with the software GraphPad Prism 9. […]

STAT3 gene = test: RT-qPCR gene expression of STAT3; format: cell-based, human
Description: as §2, §3, §4

A549 cells [6] = test: Mitochondrial ROS production assay (DHE, flow cytometry); format: cell-based, human; details: A549, IC25, 24 h; group average
Description: as §1
The production of reactive oxygen species (ROS) by mitochondria was determined using the Oxidative Stress Kit (Luminex MCH100111, Luminex Corporation). After the A549 cells were treated with the triterpenes (IC25) for 24 h, the cells were scraped and centrifuged. For ROS, the cell pellet was incubated with dihydroethidium (DHE) dye for 1 h at 37 °C.

## C[C@H]1[C@H](C)CC[C@]2(C(=O)O)CC[C@]3(C)C(=CC[C@@H]4[C@@]5(C)C[C@@H](O)[C@H](O)[C@@](C)(CO)[C@@H]5CC[C@]43C)[C@H]12 [AsA, asiatic acid]
[1]
  Activation of the DNA damage machinery (in words): caused the activation of the DNA damage machinery
MAPK/PI3K
  MAPK/PI3K expression (in words): did not affect the expression of MAPK/PI3K
  MAPK/PI3K inhibition: -
NSCLC A549 cells [2]; TI = MRC5 IC50/A549 IC50, >1 means higher selectivity
  TI: 0.64
NSCLC A549 cells [2]; summary, MRC5 vs A549
  TI > 1: -
LC3-II
  Autophagic response (in words): induced an autophagic response similar to that of CisPt
LC3-II; summary, NSCLC A549 cells
  Autophagy inhibition: -
NSCLC A549 cells [3]
  IC50: 59 ± 6 µM
[4]
  IC50 at 24 h: 38 ± 2 µM

## N.N.[Cl][Pt][Cl] [CisPt, cis-diamminedichloroplatinum (II), reference compound]
A549 cells [5]
  Total ROS production (in words): not statistically significant
PDL1 gene
  PDL1 gene expression (in words): clearly upregulated PDL1

## CC1(C)CC[C@]2(C(=O)O)CC[C@]3(C)C(=CC[C@@H]4[C@@]5(C)CC[C@H](O)C(C)(C)[C@@H]5CC[C@]43C)[C@@H]2C1 [OleA, oleanolic acid]
MAPK/PI3K
  MAPK/PI3K expression (in words): did not affect the expression of MAPK/PI3K
  MAPK/PI3K inhibition: -
RRM1 gene; A549, IC25, 24 h, vs untreated cells
  RRM1 gene expression (in words): did not downregulate RR
RRM1 gene; summary, NSCLC A549 cells
  RRM1 downregulation: -
STAT3 gene; A549, IC25, 24 h
  STAT3 gene expression (in words): did not inhibit
STAT3 gene; summary, NSCLC A549 cells
  STAT3 downregulation: -
NSCLC A549 cells [2]
  TI: 2
A549 cells [6]
  Amount of mROS, on average of the three named triterpenes, compared to the untreated cells: 26.2%
LC3-II
  Autophagic response (in words): inhibit the LC3-II activity
NSCLC A549 cells [3]
  IC50: 43 ± 5 µM
[4]
  IC50 at 24 h: 86 ± 2 µM

## CC(C)CCC[C@@H](C)[C@H]1CC[C@H]2[C@@H]3CC=C4C[C@@H](O)CC[C@]4(C)[C@H]3CC[C@]12C [cholesterol, reference compound]
NSCLC A549 cells [3]
  Cytotoxicity in A549 cells at the highest concentration: did not kill A549 cells

## CC[C@H](CC[C@@H](C)[C@H]1CC[C@H]2[C@@H]3CC=C4C[C@@H](O)CC[C@]4(C)[C@H]3CC[C@]12C)C(C)C [β-sitosterol, reference compound]
NSCLC A549 cells [3]
  Cytotoxicity in A549 cells at the highest concentration: did not kill A549 cells
